# Assay results from ChEMBL document CHEMBL5357036, “Latest developments in coumarin-based anticancer agents: mechanism of action and structure-activity relationship studies” (RSC Med Chem, 2024).
# pIC50: −log10 of the molar value.
# Experiments:
# [1] = test system: HCT-116; test: Cytotoxicity against human HCT-116 cells assessed as reduction in cell viability incubated for 48 hrs by SRB assay; assay type: functional, cell-based; conditions: HCT-116, 48 h
# [2] = test system: HT-29; test: Cytotoxicity against human HT-29 cells assessed as reduction in cell viability incubated for 48 hrs by SRB assay; assay type: functional, cell-based; conditions: HT-29, 48 h
# [3] = test system: MDA-MB-231; test: Cytotoxicity against human MDA-MB-231 cells assessed as cell growth inhibition measured after 48 hrs by SRB assay; assay type: functional, cell-based; conditions: MDA-MB-231, 48 h
# [4] = test system: HT-29; test: Cytotoxicity against human HT-29 cells assessed as reduction in cell viability by MTT assay; assay type: functional, cell-based
# [5] = test system: HCT-116; test: Cytotoxicity against human HCT-116 cells assessed as reduction in cell viability incubated for 96 hrs by MTT assay; assay type: functional, cell-based; conditions: HCT-116, 96 h
# [6] = test system: MCF7; test: cells; conditions: Homo sapiens, MCF7, 48 h
# Description: Anticancer activity against human MCF7 cells assessed as inhibition of cell growth incubated for 48 hrs by SRB assay
# [7] = test system: MDA-MB-231; test: Antiproliferative activity against human MDA-MB-231 cells assessed as reduction in cell viability measured after 72 hrs under hypoxia condition by MTT assay; assay type: functional, cell-based; conditions: MDA-MB-231, 72 h
smiles,measurement,setting,value
COc1ccccc1-c1csc(Nc2ccc3c(C)cc(=O)oc3c2)n1,pIC50,[1],6.60
same,pIC50,[2],6.60
C[C@H]1[C@@H](OCc2cn(Cc3cc(=O)oc4cc(O)ccc34)nn2)O[C@@H]2O[C@@]3(C)CC[C@H]4[C@H](C)CC[C@@H]1[C@@]24OO3,pIC50,[3],< 4.00
Cc1c(C)c2ccc(OCCn3cc(CO[C@H]4O[C@@H]5O[C@@]6(C)CC[C@H]7[C@H](C)CC[C@@H]([C@H]4C)[C@@]57OO6)nn3)cc2oc1=O,pIC50,[4],7.30
CCOC(=O)c1cc2ccc(OCCCn3cc(CO[C@H]4O[C@@H]5O[C@@]6(C)CC[C@H]7[C@H](C)CC[C@@H]([C@H]4C)[C@@]57OO6)nn3)cc2oc1=O,pIC50,[4],5.91
Cc1cc(=O)oc2cc(OCn3cc(CCO[C@H]4O[C@@H]5O[C@@]6(C)CC[C@H]7[C@H](C)CC[C@@H]([C@H]4C)[C@@]57OO6)nn3)ccc12,pIC50,[4],5.61
Cc1cc(C)c2c(OCn3cc(CCO[C@H]4O[C@@H]5O[C@@]6(C)CC[C@H]7[C@H](C)CC[C@@H]([C@H]4C)[C@@]57OO6)nn3)cc(=O)oc2c1,pIC50,[5],< 4.00
CCOC(=O)c1cc2ccc(OCn3cc(CCCO[C@H]4O[C@@H]5O[C@@]6(C)CC[C@H]7[C@H](C)CC[C@@H]([C@H]4C)[C@@]57OO6)nn3)cc2oc1=O,pIC50,[4],< 4.00
CC1SC(N2N=C(c3cc4ccccc4oc3=O)CC2c2ccc(N(C)C)cc2)=NC1=O (centres undefined),pIC50,[6],5.27
Cc1cc(=O)oc2cc(OCCCn3cc(CO[C@H]4O[C@@H]5O[C@@]6(C)CC[C@H]7[C@H](C)CC[C@@H]([C@H]4C)[C@@]57OO6)nn3)ccc12,pIC50,[4],5.91
Cc1ccc2c(Cn3cc(CO[C@H]4O[C@@H]5O[C@@]6(C)CC[C@H]7[C@H](C)CC[C@@H]([C@H]4C)[C@@]57OO6)nn3)cc(=O)oc2c1,pIC50,[3],< 4.00
Cc1cc(=O)oc2cc(Nc3nc(-c4ccc(Br)cc4)cs3)ccc12,pIC50,[1],6.60
same,pIC50,[2],6.60
C[C@H]1[C@@H](OCc2cn(CCCOc3ccc4c(C(F)(F)F)cc(=O)oc4c3)nn2)O[C@@H]2O[C@@]3(C)CC[C@H]4[C@H](C)CC[C@@H]1[C@@]24OO3,pIC50,[4],5.91
C[C@H]1[C@@H](OCCCc2cn(COc3ccc4c(C(F)(F)F)cc(=O)oc4c3)nn2)O[C@@H]2O[C@@]3(C)CC[C@H]4[C@H](C)CC[C@@H]1[C@@]24OO3,pIC50,[4],< 4.00
Cc1cc(=O)oc2cc(OCCn3cc(CO[C@H]4O[C@@H]5O[C@@]6(C)CC[C@H]7[C@H](C)CC[C@@H]([C@H]4C)[C@@]57OO6)nn3)ccc12,pIC50,[4],7.30
Cc1cc(=O)oc2cc(Nc3nc(-c4ccc(Cl)cc4)cs3)ccc12,pIC50,[1],6.60
same,pIC50,[2],6.60
Cc1nc(N2N=C(c3cc4ccccc4oc3=O)CC2c2ccc(N(C)C)cc2)sc1/N=N/c1ccc(Cl)cc1 (centres undefined),pIC50,[6],5.27
Cc1ccc2c(OCn3cc(CCO[C@H]4O[C@@H]5O[C@@]6(C)CC[C@H]7[C@H](C)CC[C@@H]([C@H]4C)[C@@]57OO6)nn3)cc(=O)oc2c1C,pIC50,[5],< 4.00
CN(C)c1ccc(C2CC(c3cc4ccccc4oc3=O)=NN2c2nc(-c3ccccc3)c(/N=N/c3ccc(Cl)cc3)s2)cc1 (centres undefined),pIC50,[6],5.27
COC(=O)c1cccc(NC(=O)c2ccc(-n3cc(COc4cc(=O)oc5ccccc45)nn3)cc2)c1,pIC50,[7],6.60
Cc1c(C)c2ccc(OCn3cc(CCCO[C@H]4O[C@@H]5O[C@@]6(C)CC[C@H]7[C@H](C)CC[C@@H]([C@H]4C)[C@@]57OO6)nn3)cc2oc1=O,pIC50,[4],< 4.00
Cc1c(Cl)c(=O)oc2cc(OCCCn3cc(CO[C@H]4O[C@@H]5O[C@@]6(C)CC[C@H]7[C@H](C)CC[C@@H]([C@H]4C)[C@@]57OO6)nn3)ccc12,pIC50,[4],5.91
Cc1cccc2c(OCn3cc(CCO[C@H]4O[C@@H]5O[C@@]6(C)CC[C@H]7[C@H](C)CC[C@@H]([C@H]4C)[C@@]57OO6)nn3)cc(=O)oc12,pIC50,[5],< 4.00
Cc1cc(C)c2c(Cn3cc(CCO[C@H]4O[C@@H]5O[C@@]6(C)CC[C@H]7[C@H](C)CC[C@@H]([C@H]4C)[C@@]57OO6)nn3)cc(=O)oc2c1,pIC50,[3],< 4.00
Cc1c(Cl)c(=O)oc2cc(OCCn3cc(CO[C@H]4O[C@@H]5O[C@@]6(C)CC[C@H]7[C@H](C)CC[C@@H]([C@H]4C)[C@@]57OO6)nn3)ccc12,pIC50,[4],7.30
CN(C)c1ccc(C2CC(c3c(O)c4ccccc4oc3=O)=NN2c2nc(-c3ccccc3)c(/N=N/c3ccc(Cl)cc3)s2)cc1 (centres undefined),pIC50,[6],5.27
CCOC(=O)c1cc2ccc(OCn3cc(CCO[C@H]4O[C@@H]5O[C@@]6(C)CC[C@H]7[C@H](C)CC[C@@H]([C@H]4C)[C@@]57OO6)nn3)cc2oc1=O,pIC50,[4],5.61
